{"source": "patent US6407233B1", "about": "“Halogen pyrimidines and its use thereof as parasite abatement means” (Bayer Aktiengesellschaft, priority 1996, dated 2002)", "key": {"[1]": {"system": "Fusarium nivale var. nivale", "assay": "Fusarium nivale (var. nivale) test (wheat)/curative", "details": "curative (sprayed 24 hours after inoculation), application rate 250 g/ha, evaluated 4 days after inoculation"}, "[2]": {"system": "Fusarium nivale var. nivale", "assay": "Fusarium nivale (var. nivale) test (wheat)/protective", "details": "protective, application rate 250 g/ha, evaluated 4 days after inoculation"}, "[3]": {"system": "Pseudocercosporella herpotrichoides", "assay": "Pseudocercosporella herpotrichoides test (wheat)/protective", "format": "in vivo", "details": "protective, application rate 250 g/ha, evaluated 21 days after inoculation", "protocol": "The test is evaluated 21 days after inoculation."}, "[4]": {"system": "Fusarium nivale var. majus", "assay": "Fusarium nivale (var. majus) test (wheat)/protective", "details": "protective, application rate 250 g/ha, evaluated 4 days after inoculation"}, "[5]": {"system": "Erysiphe graminis f.sp. hordei", "assay": "Erysiphe test (barley)/protective", "format": "in vivo", "details": "protective, application rate 250 g/ha, evaluated 7 days after inoculation", "protocol": "The test is evaluated 7 days after the inoculation."}, "[6]": {"system": "Erysiphe graminis f.sp. hordei", "assay": "Erysiphe test (barley)/curative", "format": "in vivo", "details": "curative (sprayed 48 hours after inoculation), application rate 250 g/ha, evaluated 7 days after inoculation"}}, "data": [{"smiles": "C=C(C)Cc1ccccc1Oc1ncnc(Oc2ccccc2C(=NOC)C2=NOCCO2)c1F", "note": "[Example 31]", "values": [{"measurement": "efficacy in comparison with the untreated control", "setting": "[1]", "value": 100, "unit": "%"}]}, {"smiles": "CCCc1ccccc1Oc1ncnc(Oc2ccccc2C(=NOC)C2=NOCCO2)c1F", "note": "[Example 34]", "values": [{"measurement": "efficacy in comparison with the untreated control", "setting": "[1]", "value": 100, "unit": "%"}, {"measurement": "efficacy in comparison with the untreated control", "setting": "[2]", "value": 100, "unit": "%"}]}, {"smiles": "CON=C(C1=NOCCO1)c1ccccc1Oc1ncnc(Oc2ccccc2Cn2cncn2)c1F", "note": "[Example 71]", "values": [{"measurement": "efficacy in comparison with the untreated control", "setting": "[3]", "value": 100, "unit": "%"}]}, {"smiles": "CON=C(C1=NOCCO1)c1ccccc1Oc1ncnc(Oc2ccccc2C(=O)NCc2ccccc2)c1F", "note": "[Example 69]", "values": [{"measurement": "efficacy in comparison with the untreated control", "setting": "[3]", "value": 100, "unit": "%"}]}, {"smiles": "CON=C(C1=NOCCO1)c1ccccc1Oc1ncnc(Oc2cc(C)cc(C)c2C)c1F", "note": "[Example 14]", "values": [{"measurement": "efficacy in comparison with the untreated control", "setting": "[4]", "value": 100, "unit": "%"}]}, {"smiles": "CON=C(C1=NOCCO1)c1ccccc1Oc1ncnc(Oc2ccccc2C2OCC(C)(C)CO2)c1F", "note": "[Example 59]", "values": [{"measurement": "efficacy in comparison with the untreated control", "setting": "[5]", "value": 100, "unit": "%"}]}, {"smiles": "CO/N=C(/C1=NOCCO1)c1ccccc1Oc1ncnc(Oc2ccccc2Cl)c1F", "note": "[Example 1, 3-{1-[2-(4-<2-chlorophenoxy>-5-fluoropyrimid-6-yloxy)-phenyl]-1-(methoximino)-methyl}-5,6-dihydro-1,4,2-dioxazine]", "values": [{"measurement": "efficacy in comparison with the untreated control", "setting": "[6]", "value": 100, "unit": "%"}]}, {"smiles": "CON=C(C1=NOCCO1)c1ccccc1Oc1ncnc(Oc2ccccc2OCc2ccccc2)c1F", "note": "[Example 33]", "values": [{"measurement": "efficacy in comparison with the untreated control", "setting": "[4]", "value": 100, "unit": "%"}]}, {"smiles": "CON=C(C1=NOCCO1)c1ccccc1Oc1ncnc(Oc2cccc3c2CC(C)(C)O3)c1F", "note": "[Example 42]", "values": [{"measurement": "efficacy in comparison with the untreated control", "setting": "[4]", "value": 100, "unit": "%"}]}]}
